Assay results taken from the CheMixHub viscosity set.

Test: xn = mol fraction of the nth substance listed

CCCCC(CC)COP(=O)(OCC(CC)CCCC)OCC(CC)CCCC (stereo not given) + CCCCCCCC
viscosity [mPa·s], 101 kPa
Settings	x1 = 0.098	x1 = 0.1989	x1 = 0.2979	x1 = 0.381	x1 = 0.489	x1 = 0.5902	x1 = 0.693	x1 = 0.7952	x1 = 0.9044
298.15 K	0.83	1.287	1.852	2.52	3.555	4.707	6.118	7.688	9.668
303.15 K	0.773	1.183	1.674	2.264	3.136	4.108	5.242	6.565	8.204
308.15 K	0.722	1.074	1.498	2.016	2.759	3.592	4.585	5.632	6.964

O=C(O)[C@H](O)[C@@H](O)C(=O)O + C[N+](C)(C)CCO.[Cl-]
viscosity [mPa·s]
Settings	303 K	313 K	313.2 K	323 K
101 kPa, x2 = 0.5	1281000	240000	–	73300
101.3 kPa, x2 = 0.669	–	–	6790	–

O=[N+]([O-])[O-].[Ag+] + Nc1cccc(Cl)c1
298.15 K, 101 kPa
Settings	viscosity [mPa·s]
x1 = 0.00059	3.52
x1 = 0.0014	3.57
x1 = 0.00381	3.67
x1 = 0.008857	3.92
x1 = 0.02337	4.83
x1 = 0.06044	9.18

CCCCN + CC(C)(C)O
viscosity [mPa·s], 101 kPa
Settings	x2 = 0.1	x2 = 0.2004	x2 = 0.2999	x2 = 0.4	x2 = 0.4996	x2 = 0.6	x2 = 0.7	x2 = 0.8	x2 = 0.9004	x2 = 0.95
303.15 K	0.5062	0.5833	0.681	0.804	0.9662	1.177	1.466	1.866	2.458	2.869
308.15 K	0.4732	0.541	0.6257	0.733	0.8694	1.046	1.279	1.591	2.021	2.3
313.15 K	0.4425	0.5022	0.5783	0.6716	0.7865	0.9346	1.119	1.363	1.68	1.874
318.15 K	0.4156	0.4687	0.5345	0.6159	0.7149	0.8377	0.9897	1.183	1.417	1.553
323.15 K	0.3905	0.4378	0.4957	0.5666	0.6519	0.7551	0.8801	1.031	1.21	1.309

Cc1ccncc1 + CCCO
298.15 K, 101.33 kPa
Settings	viscosity [mPa·s]
x2 = 0.091	0.9024
x2 = 0.2095	0.9381
x2 = 0.3419	1.007
x2 = 0.4177	1.071
x2 = 0.5662	1.168
x2 = 0.7017	1.327
x2 = 0.7646	1.405
x2 = 0.8291	1.52
x2 = 0.867	1.591

CCCCN + CCCCCCCC
303.15 K, 101.33 kPa
Settings	viscosity [mPa·s]
x1 = 0.1275	0.462
x1 = 0.2962	0.441
x1 = 0.4015	0.433
x1 = 0.5214	0.428
x1 = 0.6438	0.42
x1 = 0.7573	0.434
x1 = 0.9231	0.478

Cc1ccncc1 + CC(C)(C)O
298.15 K, 101.33 kPa
Settings	viscosity [mPa·s]
x2 = 0.0724	0.8901
x2 = 0.2166	0.9887
x2 = 0.2902	1.056
x2 = 0.3416	1.122
x2 = 0.507	1.386
x2 = 0.606	1.641
x2 = 0.6484	1.777
x2 = 0.7197	2.085
x2 = 0.8	2.537
x2 = 0.8603	2.959

CCCCN + C1COCCO1
298.15 K, 101 kPa
Settings	viscosity [mPa·s]
x1 = 0.05	1.094
x1 = 0.1	1.019
x1 = 0.1005	1.018
x1 = 0.15	0.953
x1 = 0.2	0.896
x1 = 0.2025	0.893
x1 = 0.25	0.846
x1 = 0.2973	0.806
x1 = 0.3	0.801
x1 = 0.35	0.761
x1 = 0.3935	0.726
x1 = 0.4	0.725
x1 = 0.45	0.692
x1 = 0.4987	0.665
x1 = 0.5	0.662
x1 = 0.55	0.634
x1 = 0.5971	0.609
x1 = 0.6	0.609
x1 = 0.65	0.585
x1 = 0.6965	0.566
x1 = 0.7	0.564
x1 = 0.75	0.545
x1 = 0.7959	0.529
x1 = 0.8	0.528
x1 = 0.85	0.512
x1 = 0.9	0.498
x1 = 0.9041	0.497
x1 = 0.95	0.486

CC(=O)[O-].[NH4+] + CC(=O)[O-].CC[n+]1ccn(C)c1
101 kPa
Settings	viscosity [mPa·s]
298.15 K, x1 = 0.0503	152.5
303.15 K, x1 = 0.1703	185.5

CC[N+](=O)[O-] + CC(C)(C)O
viscosity [mPa·s], 101.33 kPa
Settings	298.15 K	303.15 K	313.15 K
x2 = 0.0502	0.646	0.61	0.546
x2 = 0.1001	0.647	0.609	0.544
x2 = 0.1499	0.655	0.615	0.546
x2 = 0.2002	0.67	0.626	0.547
x2 = 0.2501	0.691	0.643	0.563
x2 = 0.3001	0.718	0.667	0.58
x2 = 0.35	0.753	0.694	0.597
x2 = 0.4	0.794	0.73	0.622
x2 = 0.4501	0.845	0.778	0.652
x2 = 0.5001	0.909	0.824	0.687
x2 = 0.55	0.988	0.886	0.728
x2 = 0.6	1.075	0.958	0.777
x2 = 0.6499	1.185	1.047	0.836
x2 = 0.6998	1.323	1.158	0.907
x2 = 0.7498	1.499	1.3	0.997
x2 = 0.7998	1.73	1.475	1.104
x2 = 0.8498	2.063	1.728	1.258
x2 = 0.8997	2.505	2.068	1.449
x2 = 0.95	3.231	2.574	1.718
